Measured values from US20160008339A1, “PSORALEN DERIVATIVES FOR PREVENTING OR TREATING HEART FAILURE OR CARDIAC HYPERTROPHY” (MAX-DELBRUCK-CENTRUM FUR MOLEKULARE MEDIZIN, priority 2012, published 2016).
Entries after “also recorded” stand apart in the source; their conditions may differ.

Legend:
[1] = target: T1, AKAP-Lbc (guanine nucleotide exchange on RhoA) (Homo sapiens, UniProt Q12802); assay: RhoGEF nucleotide exchange assay (GDP against mGTP on RhoA); details: IC50 (fifty percent inhibition of nucleotide exchange), 15 min
T1 sequence (Q12802 1994-2333): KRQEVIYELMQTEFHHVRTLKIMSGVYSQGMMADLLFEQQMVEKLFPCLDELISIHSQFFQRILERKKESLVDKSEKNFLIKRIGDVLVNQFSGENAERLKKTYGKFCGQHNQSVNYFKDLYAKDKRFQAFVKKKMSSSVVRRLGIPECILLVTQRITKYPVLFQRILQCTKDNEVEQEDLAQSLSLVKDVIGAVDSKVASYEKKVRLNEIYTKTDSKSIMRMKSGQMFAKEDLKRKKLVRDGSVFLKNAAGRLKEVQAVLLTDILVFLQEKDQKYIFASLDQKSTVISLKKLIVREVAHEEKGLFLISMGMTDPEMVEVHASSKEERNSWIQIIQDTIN
Description: Following the protocol of the RhoGEF exchange assay Biochem Kit, a nucleotide exchange experiment for AKAP-Lbc and RhoA was established. The fluorescence labelled nucleotide analogues 2′(3′)-O—(N-methylanthraniloyl)-guanosine diphosphate and 2′(3′)-O—(N-methylanthraniloyl)-guanosine triphosphate, hereinafter referred to mGDP and mGTP, were used for tracing the nucleotide exchange.
25 μl depletion buffer (100 mmol/L sodium phosphate, pH 7.4, 5 mmol/L EDTA, 200 mmol/L ammonium sulfate) with an excess of mGDP (5 mmol/L) were added to 200 μg recombinant his6-RhoA (25 μl) and incubated one hour at room temperature. Then, magnesium chloride (MgCl2) was added to a final concentration of 10 mmol/L.
By centrifugation with Vivaspin® 500 concentrator vials (MWCO 5 kDa, 10 min, 10000 rpm) and buffer (100 mmol/L sodium phosphate, pH 7.4, 100 mmol/L NaCl, protease inhibitor [cOmplete, Mini, EDTA-free protease inhibitor cocktaile]) RhoA-mGDP was washed twice and reduced to 100 μl. 1 μmol/L RhoA-mGDP and 0.5 μmol/L AKAP-Lbc DHPH in nucleotide exchange buffer (40 mmol/L Tris pH 7.5; 100 mmol/L NaCl; 20 mmol/L MgCl2, 100 μg/ml BSA) were used for the nucleotide exchange. The fluorescence measurements were performed in a micro plate reader (TECAN Safire) over a period of 15 min, whereby the fluorophore of mGDP was excited at 360 nm and the resulting fluorescence signal was determined at 440 nm.
At a concentration relation of 2 μmol/L protein and 1 μmol/L mGTP, an ideal fluorescence signal-to-noise-ratio was found in the nucleotide exchange buffer (40 mM Tris pH 7.5, 100 mmol/L NaCl, 20 mmol/L MgCl2, 100 μg/ml BSA). The fluorescence signal for mGTP was measured analogous to mGDP (λexc=360 nm; λem=440 nm) in a micro plate reader (TECAN Safire) over a period of 15 min. The experiment was performed in a 384-well plate.

3T3 mouse fibroblasts = assay: LPA-induced stress fibre formation, TRITC-phalloidin fluorescence; type: cell-based; details: 3T3 cells, LPA 300 nM 10 min; compound 30 μmol/L 30 min pre-treatment
Text: For the initial analysis, 3T3 cells were used to evaluate the cellular effects of the compounds of the present invention. In these cells changes in the cytoskeleton caused by GTPase activation are well observable, because the cells have a G protein coupled receptor for LPA. A stimulation of 3T3 cells with LPA leads to an activation of RhoA and thereby to the formation of fibrillar actin filaments (F-actin, stress fibres). The participation of AKAP-Lbc as an exchange factor for RhoA within the signal transduction via a G protein of the G−12/13 family was shown.
3T3 mouse fibroblasts were seeded on 30 mm cover slips (in 6 well plates) in a cell density of 2×10^5 cells/well. […]
Following that, the cells were washed with phosphate buffer (Dulbecco's Phosphate-Buffered Saline++) and fixed in 2.5% paraformaldehyde in sodium cacodylate buffer (100 mmol/L sodium cacodylate, 100 mmol/L sucrose, pH 7.4) for 15 min. […] For the microscopic investigations, images were taken with two different fluorescence channels. […]
Without LPA stimulation no stress fibres could be identified after addition of DMSO instead of the compounds of the invention (FIG. 2A, a). […] The quantification of the stress fibre formation were performed with the software package ImageJ by the determination of the overall fluorescence of the TRITC-phalloidin. […]

[2] = tested on: Gα12 coupled and AKAP-Lbc mediated activation of RhoA; assay: Rhotekin-based precipitation of RhoA-GTP, HEK293 transfected with Gα12QL / AKAP-Lbc; type: cell-based, human; details: 50 μmol/L, 30 min, vs DMSO
Description: HEK293 cells were seeded in 6-well plates. One day later the cells were transfected with the following plasmid DNAs:
After additional 24 hours the cells were treated with compound 31413 (50 μmol/L) or DMSO for 30 min at 37° C. Subsequently, the cells were lysed in precipitation buffer (50 mM Tris pH 7.4, 150 mmol/L NaCl, 4 mmol/L MgCl2; 10% v/v glycerol, 1% octylphenoxypolyethoxyethanol [IPEGAL]) and centrifugated 20000 g for two minutes to remove cell debris. 40 μl of the lysate were taken for the determination of the total RhoA content. The residual lysate was incubated with 40 μl GSH-sepharose coupled GST-rhotekin for one hour at 4° C. Then, the GSH-sepharose was washed twice with precipitation buffer, enriched with SDS-PAGE loading buffer and heated 5 min at 90° C. […] The ratio between total RhoA and Rho-GTP was densitometrically determined.
The activation state of RhoA was determined with a Rho binding region of the rhotekin protein, a Rho effector, immobilised on a sepharose bead in the presence and absence of compound 31413. […]
GTP-bound RhoA was detected by rhotekin precipitation (FIG. 3). The precipitation of RhoA from transfected HEK293 cells was performed with a rhotekin sepharose, and analysed with SDS-PAGE and immunoblotting with a RhoA specific antibody. […] The precipitated RhoA-GTP was separated with SDS-PAGE, blotted and detected with a specific anti-RhoA antibody.

[3] = tested on: primary neonatal rat cardiomyocytes; assay: Beat frequency of neonatal cardiomyocytes by Fluo-4 calcium measurement; type: cell-based
Description: For cultivation of primary neonatal rat cardiomyocytes, hearts of two to three days old rats were obtained and quickly stored on ice in ADS buffer (116.4 mM NaCl, 5.4 mM KC, 5.6 mM dextrose, 10.9 mM NaH2PO4, 405.7 μmol/L MgSO4, 20 mM Hepes, pH 7.3). Under sterile conditions, the hearts were cleaned from blood and vessels, cut into small pieces and transferred into falcon tubes. The ADS buffer was exchanged against an enzyme solution (see table below). Within four cycles each with five ml enzyme solution and an enzyme mix comprising collagenase and pancreatin, isolated cells were released from the tissue (12 min at 37° C. in a water bath with approx. 220 rpm).
The supernatant with the isolated cells was collected, transferred in fetal calf serum (FCS, 2.5 ml on ice) and subsequently centrifugated in FCS (100 g for 3 min at 4° C.). The supernatant of the centrifugation was discarded and the pellet was resuspended in 5 ml cold plating medium. After an additional centrifugation, the pellet was resuspended in 15 ml medium, transferred into a dish and incubated for two hours at 37° C. to allow the settling of the fibroblasts. The cardiomyocytes in the supernatant were counted with a Scepter Handheld Automated Cell Counter and transferred in dishes coated with gelatine. On the following day the medium was changed.
The frequency of contraction could be determined in a similar manner with a calcium sensor (Fluo-4). In a laser-scanning microscope, Fluo-4 was excited with an argon laser (488 nm) and the emission signals were detected and collected at a wavelength of 505 nm. The fluorescence intensity represented the intracellular concentration of calcium ions. Usually, the line-scan mode was used for image recording, and the line-scan images were recorded with a speed of 1.54 or 1.92 ms per line along the longitudinal axis of the cell. After the sequential image recording, a two-dimensional image with 512×100 lines or 512×2000 lines was generated and saved for later analysis.
Additional calcium measurements were performed. […] The fluorescence dye Fluo-4 was added after 20 min. Fluo-4 is a calcium sensor, which is used for investigating the calcium increase in cells. In cardiomyocytes the dye serves for examining the contractility. During contraction and relaxation, the calcium concentrations differ in the cytosol of cardiomyocytes. The fluorescence intensity of Fluo-4 increases with an increasing calcium concentration, and a decreasing calcium concentration will cause reduced fluorescence intensity. A frequency could be calculated from the fluo-4 fluorescence oscillation by a time depended analysis, wherein the fluorescence was measured over a period of two hours. The ground state at the moment before application (black), the period 10 to 30 sec after application (dark grey) and 70 to 110 sec after application (light grey) were evaluated (FIG. 5). Application refers to the adding of PE or adrenaline. […] The statistical analysis was performed according to the method of analysis of variance (ANOVA).

[4] = Fluo-4, pre-incubation 2.5 μmol/L

With `COc1ccc(-c2coc3cc4oc(=O)c(C)c(C)c4cc23)cc1` [Compound 31413, 3-(4-methoxyphenyl)-5,6-dimethyl-furo[3,2-g]chromen-7-one] the IC50 [1] was 25.9 µM, the “formation of stress fibres” value (3T3 mouse fibroblasts) was “suppression of the stress fibre formation” and the “amount of activated GTP-bound RhoA precipitated” value [2] was “significantly decreased amount of activated GTP-bound RhoA; also recorded: less RhoA-GTP was precipitated”. The “adrenalin (beta-adrenoceptor)-induced increase in cardiac myocyte beating frequency” value [3] was “does not, however, affect”, the “PE induced increase of beat rate” value [3, 4] was “inhibited only the PE induced increase of beat rate” and the “adrenaline induced increase of beat rate” value [3, 4] was “not the adrenaline induced one”.
